What was measured:
[1] = target: HCV NS3/4A protease complex (Hepatitis C virus genotype 1a, UniProt P27958, C1454S/C1711G); assay: Recombinant HCV NS3/4A protease complex FRET peptide assay (strain not stated); assay type: biochemical; conditions: IC50, NS3/4A protease enzyme assay, strain not stated; activity ranges
[2] = system: HCV replicon in Huh7 cells; assay: HCV replicon cell-based assay; parameters: species or system HCV strain 1B; conditions: Hepatitis C virus, Huh-7, 96 h; HCV replicon, Huh7 cells, 4 days; activity ranges; read-out: EC50
Outline: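 Genotype 1b subgenomic replicon Huh7 cells exposed to compound 4 days at 37° C in 4% FCS, 0.5% DMSO medium. EC50 from TaqMan RT-PCR of HCV RNA, normalized to total RNA by RiboGreen; CC50 from alamar Blue fluorescence after 4 h.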

Sequence of HCV NS3/4A protease complex (P27958 1027-1711, stated change not applied): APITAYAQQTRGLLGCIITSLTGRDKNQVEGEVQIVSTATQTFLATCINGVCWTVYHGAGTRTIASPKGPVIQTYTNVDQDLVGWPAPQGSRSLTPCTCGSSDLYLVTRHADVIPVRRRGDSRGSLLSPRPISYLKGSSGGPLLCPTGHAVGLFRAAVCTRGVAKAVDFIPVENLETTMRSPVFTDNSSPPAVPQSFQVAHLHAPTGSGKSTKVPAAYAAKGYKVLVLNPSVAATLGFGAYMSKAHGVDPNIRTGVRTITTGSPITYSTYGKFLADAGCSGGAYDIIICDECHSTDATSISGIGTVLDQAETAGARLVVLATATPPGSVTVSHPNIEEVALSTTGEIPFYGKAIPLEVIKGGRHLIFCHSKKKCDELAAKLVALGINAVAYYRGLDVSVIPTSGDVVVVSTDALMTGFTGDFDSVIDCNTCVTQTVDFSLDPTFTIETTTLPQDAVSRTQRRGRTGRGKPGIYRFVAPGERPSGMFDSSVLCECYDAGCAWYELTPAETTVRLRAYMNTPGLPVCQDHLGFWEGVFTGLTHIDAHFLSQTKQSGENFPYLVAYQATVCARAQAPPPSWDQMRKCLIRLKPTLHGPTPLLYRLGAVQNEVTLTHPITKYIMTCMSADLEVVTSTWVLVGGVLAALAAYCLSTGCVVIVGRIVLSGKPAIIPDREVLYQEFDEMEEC
Sequence of HCV NS3/4A protease complex (P27958 1027-1711, stated change not applied): as above

Structure (SMILES)	IC50 [1]	EC50 [2]
CCC(C)[C@H](NC(=O)OC(C)(C)C)C(=O)N1C[C@H](Oc2cc(-c3ccccc3)nc3cc(OC)ccc23)C[C@H]1C(=O)NC1(C(=O)NS(=O)(=O)C2CC2)CC12CCC2 (stereo partly drawn) [Compound 137]	< 5000 nM	< 5000 nM
COc1ccc2c(OC3C[C@@H](C(=O)NC4(C(=O)NS(=O)(=O)C5CC5)CC45CC5)N(C(=O)[C@@H](NC(=O)OC(C)(C)C)C(C)(C)C)C3)cc(-c3ccccc3)nc2c1 (stereo partly drawn) [Compound 140, {1-[2-(1-Cyclopropanesulfonylaminocarbonyl-spiro[2.2]pentane-1-ylcarbamoyl)-4-(7-methoxy-2-phenyl-quinolin-4-yloxy)-pyrrolidine-1-carbonyl]-2,2-dimethyl-propyl}-carbamic acid tert-butyl ester]	< 50 nM	< 500 nM
COc1ccc2c(OC3C[C@@H](C(=O)NC4(C(=O)NS(=O)(=O)C5CC5)CCC45CC5)N(C(=O)[C@@H](NC(=O)OC(C)(C)C)C(C)(C)C)C3)cc(-c3ccccc3)nc2c1 (stereo partly drawn) [Compound 141]	< 500 nM	< 5000 nM

Reference: US6872805B2 (Bristol-Myers Squibb Company, priority 2000, dated 2005)
